# Laboratory results taken from US12492163B2, “9H-fluorene derivatives or their pharmaceutically acceptable salts” (priority 2020, dated 2025).
# Molecular target: human plasma butyrylcholinesterase (hBuChE) (Homo sapiens (Human), UniProt P06276)
# Assay: Ellman's test, inhibition of human plasma butyrylcholinesterase
# Assay type: biochemical
# Method in brief: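 Modified Ellman assay: compound preincubated 5 min with enzyme and DTNB in 0.1 M phosphate buffer pH 8.0 at 25° C (eqBuChE) or 36° C (hBuChE), then butyrylthiocholine added; absorbance change at 412 nm read after 5 min. Screening at 10 μM (eqBuChE) or 1 μM (hBuChE); IC50 by non-linear regression, triplicates.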
# human plasma butyrylcholinesterase (hBuChE), sequence (P06276 29-602): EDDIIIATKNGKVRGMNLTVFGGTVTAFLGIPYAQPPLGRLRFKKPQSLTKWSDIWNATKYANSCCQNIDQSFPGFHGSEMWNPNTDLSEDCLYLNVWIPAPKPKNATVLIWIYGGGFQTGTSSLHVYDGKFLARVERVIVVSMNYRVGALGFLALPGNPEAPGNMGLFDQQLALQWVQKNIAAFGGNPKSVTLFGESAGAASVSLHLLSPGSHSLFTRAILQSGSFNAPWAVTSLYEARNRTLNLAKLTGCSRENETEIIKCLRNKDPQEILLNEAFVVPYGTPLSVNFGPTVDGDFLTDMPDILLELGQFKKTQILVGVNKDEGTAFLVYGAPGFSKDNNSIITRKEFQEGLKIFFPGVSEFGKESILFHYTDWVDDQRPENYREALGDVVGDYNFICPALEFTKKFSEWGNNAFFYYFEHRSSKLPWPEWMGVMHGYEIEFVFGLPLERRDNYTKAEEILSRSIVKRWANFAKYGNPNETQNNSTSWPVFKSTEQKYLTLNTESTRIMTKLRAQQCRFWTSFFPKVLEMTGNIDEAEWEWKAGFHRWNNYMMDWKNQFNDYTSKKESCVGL
structure (smiles),measurement,value
"O[C@H](CNCC1CC1)[C@H](Cc1ccccc1)NC1c2ccccc2-c2ccccc21 [JT-3, (2R,3S)-3-((9H-fluoren-9-yl)amino)-1-((cyclopropylmethyl)amino)-4-phenylbutan-2-ol]",IC50,207 nM
